Key:
[1] = tested on: conscious Dogs; assay: Hypotensive effects before and after furosemide in conscious dogs; type: in vivo, dog; conditions: cumulative iv 0.3 to 3 mg/kg
Source text: The hypotensive effects of 2-butyl-4-chloro-1-[(2′-(1H-tetrazol-5-yl)biphenyl-4-yl)methyl]-5-hydroxymethylimidazole sodium salt were compared before and after furosemide administration to conscious Dogs.

[2] = tested on: bilaterally nephrectomized Lewis rats transplanted with kidney from Fisher 344 donor rat; assay: Chronic renal allograft failure rat model, 6 month follow-up; conditions: for FSGS % (range) / Animal survival / Proteinuria / SBP: end of 6 month follow-up; for Animal survival: allograft rats; for Proteinuria / SBP: mean ±SD
Protocol: Transplanted rats received cyclosporine (5 mg/kg/day i.m.) for the first 10 days to prevent acute rejection, and doses of antihypertensive drugs were adjusted to maintain blood pressure within the normal range.

[3] = tested on: awake rats made hypertensive by ligation of the left renal artery; assay: Antihypertensive effects in renal hypertensive rats; type: in vivo, rat; conditions: Table 1
Protocol: This procedure increases blood pressure by increasing renin production with consequent elevation of All levels. Compounds are administered orally at 100 mg/kg and/or intravenously via a cannula in the jugular vein at 10 mg/kg. Arterial blood pressure is continuously measured directly through a carotid artery cannula and recorded using a pressure transducer and a polygraph. Blood pressure levels after treatment are compared to pretreatment levels to determine the antihypertensive effects of the compounds (See Table 1). Compounds listed in Table 2 were tested in the same manner as described for Table 1, except that in the test for anti hypertensive effects in renal hypertensive rats, the compounds were administered orally at 30 mg/kg and intravenously at 3 mg/kg.

SMILES	Effect on blood pressure ([1]; after furosemide 10 mg/kg im at 18 and 2 hours before)	Inhibition of pressor response to AII ([1]; after furosemide 10 mg/kg im)	Inhibition of pressor response to AII ([1]; before furosemide, 10 min post dose)	Effect on blood pressure ([1]; normotensive conscious dogs, before furosemide, n=4)	FSGS % (range) [2]	Animal survival [2] [%]	Proteinuria [2]	SBP [2] [mm HG]	Antihypertensive Effects in Renal Hypertensive Rats Intravenous Activity ([3]; intravenous, 10 mg/kg)	Antihypertensive Effects in Renal Hypertensive Rats Oral Activity ([3]; oral, 100 mg/kg)	Protection from chronic allograft injury and long-term animal survival ([2]; at comparable level of SBP control)
CCCCc1nc(Cl)c(CO)n1Cc1ccc(-c2ccccc2-c2nnn[nH]2)cc1.[Na] [2-butyl-4-chloro-1-[(2′-(1H-tetrazol-5-yl)biphenyl-4-yl)methyl]-5-hydroxymethylimidazole sodium salt]	caused a significant decrease	inhibited the pressor response to AII at the two higher doses	effective in inhibiting the pressor response to AII	did not lower blood pressure							
CCOC(=O)C1=C(C)NC(C)=C(C(=O)OCC)C1c1ccccc1/C=C/C(=O)OC(C)(C)C [Lacidipine, reference compound]					15 (10-20) %	34	167 ± 26° mg/day	125 ± 7			
CCCCc1nc(Cl)c(CO)n1Cc1ccc(-c2ccccc2-c2nn[nH]n2)cc1 [Losartan, 2-n-butyl-4-chloro-5-hydroxymothyl-1-[(2′-(1H-tetrazol-5-yl)biphenil-4-yl)methyl]imidazole]					3 (0-10) %	100	71 ± 46 mg/day	114 ± 12	+ (Significant decrease in blood pressure at 10, mg/kg or less)	+ (Significant decrease in blood pressure at 100 mg/kg or less)	effectively protects animals from chronic allograft injury

Reference: patent publication US6576652B2, “Use of an angiotensin II receptor antagonist for the preparation of drugs to increase the survival rate of renal transplant patients” (Merck Sharp & Dohme (Italia) S.p.A., priority 1997, dated 2003)
